Experimental data as given in patent US12187723B2 (BRISTOL-MYERS SQUIBB COMPANY, priority 2019, dated 2025).

Assays:
human TLR9 = molecular target: T1, human TLR9 (Homo sapiens, UniProt Q9NR96); test: TLR9 inhibition reporter assay (HEK-Blue SEAP); assay type: cell-based; settings: HEK-Blue cells overexpressing human TLR9, ODN2006 5 nM, 22 hour incubation
T1 construct: host or cells: HEK-Blue cells
T1 sequence (Q9NR96 26-1032): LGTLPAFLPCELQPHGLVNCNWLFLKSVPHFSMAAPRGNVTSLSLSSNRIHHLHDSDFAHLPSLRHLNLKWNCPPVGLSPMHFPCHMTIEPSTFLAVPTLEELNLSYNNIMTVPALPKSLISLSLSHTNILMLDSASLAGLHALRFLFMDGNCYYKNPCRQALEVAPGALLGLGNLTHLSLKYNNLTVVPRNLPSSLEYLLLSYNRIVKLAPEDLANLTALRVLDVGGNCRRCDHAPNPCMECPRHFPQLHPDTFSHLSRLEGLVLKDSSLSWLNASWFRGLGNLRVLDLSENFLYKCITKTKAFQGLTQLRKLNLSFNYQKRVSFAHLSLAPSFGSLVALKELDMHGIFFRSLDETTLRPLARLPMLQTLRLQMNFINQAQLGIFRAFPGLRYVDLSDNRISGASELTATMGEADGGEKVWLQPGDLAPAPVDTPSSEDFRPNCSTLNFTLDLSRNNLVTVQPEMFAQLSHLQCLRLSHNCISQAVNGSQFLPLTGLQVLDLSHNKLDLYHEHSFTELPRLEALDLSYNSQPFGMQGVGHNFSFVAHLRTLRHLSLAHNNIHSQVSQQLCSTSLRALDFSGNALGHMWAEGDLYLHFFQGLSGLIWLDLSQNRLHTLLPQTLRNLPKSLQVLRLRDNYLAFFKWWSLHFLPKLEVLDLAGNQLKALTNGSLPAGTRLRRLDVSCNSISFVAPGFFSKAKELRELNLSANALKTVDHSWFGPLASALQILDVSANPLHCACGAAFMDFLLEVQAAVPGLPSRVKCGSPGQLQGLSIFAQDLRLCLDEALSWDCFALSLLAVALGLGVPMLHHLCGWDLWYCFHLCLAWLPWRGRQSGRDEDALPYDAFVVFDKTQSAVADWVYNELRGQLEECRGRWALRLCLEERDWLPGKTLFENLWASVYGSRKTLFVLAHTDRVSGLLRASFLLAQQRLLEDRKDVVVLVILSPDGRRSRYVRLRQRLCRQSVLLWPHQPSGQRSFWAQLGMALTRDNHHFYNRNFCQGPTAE
Procedure, shortened: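 Human TLR7/8/9 HEK-Blue reporter lines; dose range 0.05 nM–50 μM; 30 min RT preincubation; stimulus gardiquimod 7.5 μM / R848 15.9 μM / ODN2006 5 nM respectively; 22 h, 37 °C; SEAP detected colorimetrically.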

human TLR7 = molecular target: T2, human TLR7 (Homo sapiens, UniProt Q9NYK1); test: TLR7 inhibition reporter assay (HEK-Blue SEAP); assay type: cell-based; settings: HEK-Blue cells overexpressing human TLR7, gardiquimod 7.5 μM, 22 hour incubation
T2 construct: host or cells: HEK-Blue cells
T2 sequence (Q9NYK1 27-1049): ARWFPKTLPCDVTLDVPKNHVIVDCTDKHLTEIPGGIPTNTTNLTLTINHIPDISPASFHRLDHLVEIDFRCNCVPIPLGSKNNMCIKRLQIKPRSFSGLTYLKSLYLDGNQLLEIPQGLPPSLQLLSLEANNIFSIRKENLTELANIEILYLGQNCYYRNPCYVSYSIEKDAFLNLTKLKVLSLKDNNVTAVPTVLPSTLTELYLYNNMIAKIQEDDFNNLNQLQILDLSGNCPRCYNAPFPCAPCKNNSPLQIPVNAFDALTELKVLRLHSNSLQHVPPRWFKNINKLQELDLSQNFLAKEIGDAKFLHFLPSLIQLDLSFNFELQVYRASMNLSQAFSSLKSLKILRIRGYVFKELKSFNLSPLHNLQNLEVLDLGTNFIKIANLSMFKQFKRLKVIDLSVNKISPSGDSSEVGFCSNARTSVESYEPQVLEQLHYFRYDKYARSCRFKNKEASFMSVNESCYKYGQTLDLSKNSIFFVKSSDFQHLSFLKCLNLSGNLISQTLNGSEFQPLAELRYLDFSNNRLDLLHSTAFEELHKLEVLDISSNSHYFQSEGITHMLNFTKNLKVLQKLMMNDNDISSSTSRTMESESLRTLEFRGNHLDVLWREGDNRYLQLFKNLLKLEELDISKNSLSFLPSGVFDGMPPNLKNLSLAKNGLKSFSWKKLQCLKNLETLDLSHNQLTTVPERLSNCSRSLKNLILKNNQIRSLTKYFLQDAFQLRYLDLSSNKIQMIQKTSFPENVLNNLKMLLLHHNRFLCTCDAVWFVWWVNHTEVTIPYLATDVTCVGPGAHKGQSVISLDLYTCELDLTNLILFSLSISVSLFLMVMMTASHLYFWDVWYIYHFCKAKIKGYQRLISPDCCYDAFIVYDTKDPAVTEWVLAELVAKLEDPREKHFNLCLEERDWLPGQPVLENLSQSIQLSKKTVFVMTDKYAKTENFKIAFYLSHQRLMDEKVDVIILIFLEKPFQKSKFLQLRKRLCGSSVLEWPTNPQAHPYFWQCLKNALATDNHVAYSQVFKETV
Procedure, shortened: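 Cells (15000/well for TLR7, 20,000 for TLR8) were treated with compounds over 0.05 nM-50 μM final. After 22 h at 37° C, 5% CO2, SEAP was measured with HEK-Blue Detection reagent; percent inhibition was taken as reduction of agonist-plus-DMSO signal relative to a known inhibitor.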

SMILES	IC50 (human TLR9)	IC50 (human TLR7)
COc1cc(-c2cc3[nH]c(=O)n([C@H]4CCCN(CCC(C)C)C4)c3cc2C(C)C)cn2ncnc12 [Example 132, (S)-1-(1-isopentylpiperidin-3-yl)-6-isopropyl-5-(8-methoxy-[1,2,4]triazolo[1,5-a]pyridin-6-yl)-1,3-dihydro-2H-benzo[d]imidazol-2-one]	11000 nM	18.3 nM
COCCN1CCC[C@@H](n2c(=O)[nH]c3cc(-c4cc(C)c5ncnn5c4)c(C)cc32)C1 [Example 97, (R)-1-(1-(2-methoxyethyl)piperidin-3-yl)-6-methyl-5-(8-methyl-[1,2,4]triazolo[1,5-a]pyridin-6-yl)-1,3-dihydro-2H-benzo[d]imidazol-2-one]	19100 nM	38.8 nM
COc1cc(-c2cc3[nH]c(=O)n(C4CCN(C(=O)CN(C)C)CC4)c3cc2C)cn2ncnc12 [Example 100, 1-(1-(2-(dimethylamino)acetyl)piperidin-4-yl)-5-(8-methoxy-[1,2,4]triazolo[1,5-a]pyridin-6-yl)-6-methyl-1H-benzo[d]imidazol-2(3H)-one]	1660 nM	548 nM
Cc1cc(-c2ccc3c(c2)[nH]c(=O)n3C2CCN(C(=O)CN(C)C)CC2)cn2ncnc12 [Example 102, 1-(1-(dimethylglycyl)piperidin-4-yl)-5-(8-methyl-[1,2,4]triazolo[1,5-a]pyridin-6-yl)-1,3-dihydro-2H-benzo[d]imidazol-2-one]	3210 nM	> 3130 nM
Cc1c(-c2cc3[nH]c(=O)n([C@@H]4CCCN(CC5CCOCC5)C4)c3cc2C(C)C)cn2ncnc2c1C [Example 149, (R)-5-(7,8-dimethyl-[1,2,4]triazolo[1,5-a]pyridin-6-yl)-6-isopropyl-1-(1-((tetrahydro-2H-pyran-4-yl)methyl)piperidin-3-yl)-1,3-dihydro-2H-benzo[d]imidazol-2-one]	15700 nM	3.97 nM
CCN1CCC[C@@H](n2c(=O)[nH]c3cc(-c4cc(OC)c5ncnn5c4)c(C(C)C)cc32)C1 (single isomer, unassigned) [Example 144]	14100 nM	8.58 nM
COc1cc(-c2cc3[nH]c(=O)n([C@@H]4CCCN(CC5CC5)C4)c3cc2C(C)C)cn2ncnc12 [Example 142, (R)-1-(1-(cyclopropylmethyl)piperidin-3-yl)-6-isopropyl-5-(8-methoxy-[1,2,4]triazolo[1,5-a]pyridin-6-yl)-1,3-dihydro-2H-benzo[d]imidazol-2-one]	6020 nM	0.64 nM
COc1cc(-c2cc3[nH]c(=O)n([C@H]4CCCN(C5COC5)C4)c3cc2C(C)C)cn2ncnc12 [Example 123, (S)-6-isopropyl-5-(8-methoxy-[1,2,4]triazolo[1,5-a]pyridin-6-yl)-1-(1-(oxetan-3-yl)piperidin-3-yl)-1,3-dihydro-2H-benzo[d]imidazol-2-one]	> 50000 nM	125 nM
COCCN1CCC[C@@H](n2c(=O)[nH]c3cc(-c4cc(OC)c5ncnn5c4)c(C(F)(F)F)cc32)C1 [Example 118, (R)-5-(8-methoxy-[1,2,4]triazolo[1,5-a]pyridin-6-yl)-1-(1-(2-methoxyethyl)piperidin-3-yl)-6-(trifluoromethyl)-1,3-dihydro-2H-benzo[d]imidazol-2-one]	18100 nM	26.5 nM
COc1cc(-c2cc3[nH]c(=O)n([C@@H]4CCCN(C)C4)c3cc2C(C)C)cn2ncnc12 [Example 136, (R)-6-isopropyl-5-(8-methoxy-[1,2,4]triazolo[1,5-a]pyridin-6-yl)-1-(1-methylpiperidin-3-yl)-1,3-dihydro-2H-benzo[d]imidazol-2-one]	14900 nM	2.18 nM

Further lines, results first:

IC50 (human TLR9)	IC50 (human TLR7)	SMILES
638 nM	70.8 nM	CCN1CCC(n2c(=O)[nH]c3cc(-c4cc(OC)c5ncnn5c4)c(C)cc32)CC1 [Example 9, 1-(1-ethylpiperidin-4-yl)-5-(8-methoxy-[1,2,4]triazolo[1,5-a]pyridin-6-yl)-6-methyl-1,3-dihydro-2H-benzo[d]imidazol-2-one]
7070 nM	0.74 nM	COc1cc(-c2cc3[nH]c(=O)n([C@@H]4CCCN(C(C)C)C4)c3cc2C(C)C)cn2ncnc12 [Example 137, (R)-6-isopropyl-1-(1-isopropylpiperidin-3-yl)-5-(8-methoxy-[1,2,4]triazolo[1,5-a]pyridin-6-yl)-1,3-dihydro-2H-benzo[d]imidazol-2-one]
3880 nM	0.12 nM	COc1cc(-c2cc3[nH]c(=O)n([C@@H]4CCCN(CC(C)C)C4)c3cc2C(C)C)cn2ncnc12 [Example 141, (R)-1-(1-isobutylpiperidin-3-yl)-6-isopropyl-5-(8-methoxy-[1,2,4]triazolo[1,5-a]pyridin-6-yl)-1,3-dihydro-2H-benzo[d]imidazol-2-one]
1330 nM	41.8 nM	CCCN1CCC(n2c(=O)[nH]c3cc(-c4cc(C)c5ncnn5c4)c(C)cc32)CC1 [Example 7, 6-methyl-5-(8-methyl-[1,2,4]triazolo[1,5-a]pyridin-6-yl)-1-(1-propylpiperidin-4-yl)-1,3-dihydro-2H-benzo[d]imidazol-2-one]
> 50000 nM	66.9 nM	Cc1c(-c2cc3[nH]c(=O)n([C@@H]4CCCN(C)C4)c3cc2C(C)C)cn2ncnc2c1C [Example 147, (R)-5-(7,8-dimethyl-[1,2,4]triazolo[1,5-a]pyridin-6-yl)-6-isopropyl-1-(1-methylpiperidin-3-yl)-1,3-dihydro-2H-benzo[d]imidazol-2-one]
7940 nM	399 nM	COc1cc(-c2cc3[nH]c(=O)n(C4CCCN(C(=O)CN(C)C)C4)c3cc2C)cn2ncnc12 (centres unmarked) [Example 105, 1-(1-(dimethylglycyl)piperidin-3-yl)-5-(8-methoxy-[1,2,4]triazolo[1,5-a]pyridin-6-yl)-6-methyl-1,3-dihydro-2H-benzo[d]imidazol-2-one]
